Experimental data reported in patent US8658661B2, “Oxadiazole inhibitors of leukotriene production” (Boehringer Ingelheim International GmbH, priority 2010, dated 2014).

How the values were obtained:
[1] = target: T1, recombinant human FLAP protein (Homo sapiens, UniProt P20292); assay: FLAP binding assay (SPA, displacement of [125I]L-691,831); conditions: membranes of sf9 cells expressing recombinant human FLAP; [125I]L-691,831 probe; read-out: FLAP binding IC50
T1 construct: made in house; host or cells: Sf9 insect cells (100,000×g membrane pellet used)
T1 sequence (P20292 1-161): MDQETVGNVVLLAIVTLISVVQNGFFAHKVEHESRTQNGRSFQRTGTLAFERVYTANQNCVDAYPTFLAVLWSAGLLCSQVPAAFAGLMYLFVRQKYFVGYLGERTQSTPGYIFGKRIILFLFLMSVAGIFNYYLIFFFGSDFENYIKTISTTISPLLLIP
Procedure, shortened: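 Membranes from sf9 cells expressing human FLAP in pH 7.5 Tris buffer (MgCl2, EDTA, PMSF). Non-specific binding defined with 10 μM cold L-691,831.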

[2] = tested on: synthesis of LTB4 in human whole blood; assay: Human whole blood assay (inhibition of LTB4 synthesis, calcimycin stimulated); assay type: cell-based; conditions: heparinized human whole blood, calcimycin 20 μM, plasma LTB4
Procedure, shortened: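 Steps: compound plus heparinized human whole blood, 15 min at 37° C; add calcimycin to 20 μM final; incubate another 30 min at 37° C; centrifuge at low speed and collect plasma; measure LTB4 with a homogeneous time-resolved fluorescence immunoassay.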

Structure (SMILES)	IC50 [1] [nM]	IC50 [2] [nM]
CN(C)C(=O)Cn1cc(-c2nc(C(C)(c3ccc(-c4cnc(N)nc4F)cc3)C3CC3)no2)cn1 (stereo not shown) [Example 275, 2-[4-(3-{1-[4-(2-Amino-4-fluoro-pyrimidin-5-yl)-phenyl]-1-cyclopropyl-ethyl}-[1,2,4]oxadiazol-5-yl)-pyrazol-1-yl]-N,N-dimethyl-acetamide]	11	220
CNc1ccc(-c2ccc([C@](C)(c3noc(-c4cnn(CC(=O)N(C)C)c4)n3)C3CC3)cc2)cn1 [Example 280, 2-[4-(3-{(R)-1-Cyclopropyl-1-[4-(6-methylamino-pyridin-3-yl)-phenyl]-ethyl}-[1,2,4]oxadiazol-5-yl)-pyrazol-1-yl]-N,N-dimethyl-acetamide]	3	35
CC(C)C(C)(c1ccc(-c2cnc(N)nc2)cc1)c1noc(-c2cccc(=O)n2C)n1 (stereo not shown) [Example 165, 6-(3-{2-[4-(2-aminopyrimidin-5-yl)phenyl]-3-methylbutan-2-yl}-1,2,4-oxadiazol-5-yl)-1-methylpyridin-2(1H)-one]	2.1	89
CC(C)C(C)(c1ccc(-c2cnc(N)nc2)cc1)c1noc(N2CCC(N(C)C)CC2)n1 (stereo not shown) [Example 218]	130	920
COCCn1cc(-c2nc([C@@](C)(c3ccc(-c4ccc(N)nc4)cc3)C3CC3)no2)cn1 [Example 183, 5-[4-((R)-1-Cyclopropyl-1-{5-[1-(2-methoxy-ethyl)-1H-pyrazol-4-yl]-[1,2,4]oxadiazol-3-yl}-ethyl)-phenyl]-pyridin-2-ylamine]	5.5	39
CC(C)C(C)(c1ccc(-c2cnc(N)nc2)cc1)c1noc(NCCS(C)(=O)=O)n1 (stereo not shown) [Example 87, 5-{4-[3-methyl-2-(5-{[2-(methylsulfonyl)ethyl]amino}-1,2,4-oxadiazol-3-yl)butan-2-yl]phenyl}pyrimidin-2-amine]	41	970
CC(C)C(C)(c1ccc(-c2cnc(N)nc2)cc1)c1noc(N2CCNCC2)n1 (stereo not shown) [Example 83, 5-(4-{3-methyl-2-[5-(piperazin-1-yl)-1,2,4-oxadiazol-3-yl]butan-2-yl}phenyl)pyrimidin-2-amine]	26	1100
CC(C)C(C)(c1ccc(-c2cnc(N)nc2)cc1)c1noc(C2CCNCC2)n1 (stereo not shown) [Example 110, 5-(4-{3-methyl-2-[5-(piperidin-4-yl)-1,2,4-oxadiazol-3-yl]butan-2-yl}phenyl)pyrimidin-2-amine]	190	2800
CC(C)C(C)(c1ccc(-c2cnc(N)nc2)cc1)c1noc(C2(C)CC2)n1 (stereo not shown) [Example 118, 5-(4-{3-methyl-2-[5-(1-methylcyclopropyl)-1,2,4-oxadiazol-3-yl]butan-2-yl}phenyl)pyrimidin-2-amine]	9.9	820
CC(C)C(C)(c1ccc(-c2cnc(N)nc2)cc1)c1noc(NCCO)n1 (stereo not shown) [Example 80, 2-[(3-{2-[4-(2-aminopyrimidin-5-yl)phenyl]-3-methylbutan-2-yl}-1,2,4-oxadiazol-5-yl)amino]ethanol]	23	350
Cn1cc(-c2nc(C(C)(c3ccc(-c4cnc5c(c4)CCN5)cc3)C3CC3)no2)cn1 (stereo not shown) [Example 256, 5-(4-{1-Cyclopropyl-1-[5-(1-methyl-1H-pyrazol-4-yl)-[1,2,4]oxadiazol-3-yl]-ethyl}-phenyl)-2,3-dihydro-1H-pyrrolo[2,3-b]pyridine]	4.5	51
COCCc1nc(C(C)(c2ccc(-c3cnc(N)nc3)cc2)C(C)C)no1 (stereo not shown) [Example 232, 5-(4-{1-[5-(2-Methoxy-ethyl)-[1,2,4]oxadiazol-3-yl]-1,2-dimethyl-propyl}-phenyl)-pyrimidin-2-ylamine]	37	370
COCCn1cc(-c2nc(C(C)(c3ccc(-c4cnc(N)nc4)cc3)C(C)C)no2)cn1 (stereo not shown) [Example 158, 5-[4-(2-{5-[1-(2-methoxyethyl)-1H-pyrazol-4-yl]-1,2,4-oxadiazol-3-yl}-3-methylbutan-2-yl)phenyl]pyrimidin-2-amine]	3.4	55

Continued, values first:

IC50 [1] [nM]	IC50 [2] [nM]	Structure (SMILES)
3.9	200	CC(c1ccc(-c2cnc(N)nc2)cc1)(c1noc(-c2cnn(C3COC3)c2)n1)C1CCC1 (stereo not shown) [Example 99, 5-[4-(1-cyclobutyl-1-{5-[1-(oxetan-3-yl)-1H-pyrazol-4-yl]-1,2,4-oxadiazol-3-yl}ethyl)phenyl]pyrimidin-2-amine]
3.3	51	Cn1cc(-c2nc([C@@](C)(c3ccc(-c4ccc(N)nc4)cc3)C3CC3)no2)cn1 [Example 181, 5-(4-{(R)-1-Cyclopropyl-1-[5-(1-methyl-1H-pyrazol-4-yl)-[1,2,4]oxadiazol-3-yl]-ethyl}-phenyl)-pyridin-2-ylamine]
3.1	140	CC(C)(CO)Nc1cnc(-c2nc(C(C)(c3ccc(-c4cnc(N)nc4)cc3)C3CC3)no2)cn1 (stereo not shown) [Example 45, 2-{[5-(3-{1-[4-(2-aminopyrimidin-5-yl)phenyl]-1-cyclopropylethyl}-1,2,4-oxadiazol-5-yl)pyrazin-2-yl]amino}-2-methylpropan-1-ol]
40	200	CC(c1ccc(-c2cnc(N)nc2)cc1)(c1noc(N2CC(O)C2)n1)C1CC1 (stereo not shown) [Example 274, 1-(3-{1-[4-(2-Amino-pyrimidin-5-yl)-phenyl]-1-cyclopropyl-ethyl}-[1,2,4]oxadiazol-5-yl)-azetidin-3-ol]
280	> 5000	COCCn1cc(-c2nc([C@](C)(c3ccc(-c4cnc(N)nc4)cc3)C3CCC3)no2)cn1 [Example 101, 5-{4-[(1S)-1-cyclobutyl-1-{5-[1-(2-methoxyethyl)-1H-pyrazol-4-yl]-1,2,4-oxadiazol-3-yl}ethyl]phenyl}pyrimidin-2-amine]
6	170	CC(c1ccc(-c2cnc(N)nc2)cc1)(c1noc(-c2cc[nH]n2)n1)C1CC1 (stereo not shown) [Example 25, 5-(4-{1-cyclopropyl-1-[5-(1H-pyrazol-3-yl)-1,2,4-oxadiazol-3-yl]ethyl}phenyl)pyrimidin-2-amine]
6.8	150	CC(C)(CO)Nc1cnc(-c2nc([C@](C)(c3ccc(-c4cnc(N)nc4)cc3)C3CC3)no2)cn1 (single isomer, unassigned) [Example 57]
18	350	Cn1cc(-c2nc([C@](C)(c3ccc(-c4cnc(N)nc4)cc3)C3CC3)no2)cn1 [Example 62, 5-(4-{(1S)-1-cyclopropyl-1-[5-(1-methyl-1H-pyrazol-4-yl)-1,2,4-oxadiazol-3-yl]ethyl}phenyl)pyrimidin-2-amine]
5.5	87	CC(c1ccc(-c2cnc(N)nc2)cc1)(c1noc(-c2cn[nH]c2)n1)C1CC1 (stereo not shown) [Example 21, 5-(4-{1-cyclopropyl-1-[5-(1H-pyrazol-4-yl)-1,2,4-oxadiazol-3-yl]ethyl}phenyl)pyrimidin-2-amine]
2.1	110	CC(C)(O)CNc1ccc(-c2nc(C(C)(c3ccc(-c4cnc(N)nc4)cc3)C3CC3)no2)cn1 (stereo not shown) [Example 39, 1-{[5-(3-{1-[4-(2-aminopyrimidin-5-yl)phenyl]-1-cyclopropylethyl}-1,2,4-oxadiazol-5-yl)pyridin-2-yl]amino}-2-methylpropan-2-ol]
